Results as given in patent publication US9315490B2, “2,5-substituted pyrimidines” (Grünenthal GmbH, priority 2014, dated 2016).

Legend:
[1] = target: T1, human PDE4B1 (Homo sapiens, UniProt Q07343); assay: cAMP HTRF assay to determine the activity of hPDE4B1; format: biochemical; conditions: inhibition of PDE4B at a test concentration of 1 μM
T1 construct: host or cells: Sf9 cells
How it was run: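 […], using HTRF quantitation of residual cAMP after 1 mM IBMX stop and 60 min detection. Enzyme was Sf9-expressed human PDE4B1 incubated 30 min at room temperature with 40 nM final cAMP at pH 7.8.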

T1 sequence (Q07343 whole entry): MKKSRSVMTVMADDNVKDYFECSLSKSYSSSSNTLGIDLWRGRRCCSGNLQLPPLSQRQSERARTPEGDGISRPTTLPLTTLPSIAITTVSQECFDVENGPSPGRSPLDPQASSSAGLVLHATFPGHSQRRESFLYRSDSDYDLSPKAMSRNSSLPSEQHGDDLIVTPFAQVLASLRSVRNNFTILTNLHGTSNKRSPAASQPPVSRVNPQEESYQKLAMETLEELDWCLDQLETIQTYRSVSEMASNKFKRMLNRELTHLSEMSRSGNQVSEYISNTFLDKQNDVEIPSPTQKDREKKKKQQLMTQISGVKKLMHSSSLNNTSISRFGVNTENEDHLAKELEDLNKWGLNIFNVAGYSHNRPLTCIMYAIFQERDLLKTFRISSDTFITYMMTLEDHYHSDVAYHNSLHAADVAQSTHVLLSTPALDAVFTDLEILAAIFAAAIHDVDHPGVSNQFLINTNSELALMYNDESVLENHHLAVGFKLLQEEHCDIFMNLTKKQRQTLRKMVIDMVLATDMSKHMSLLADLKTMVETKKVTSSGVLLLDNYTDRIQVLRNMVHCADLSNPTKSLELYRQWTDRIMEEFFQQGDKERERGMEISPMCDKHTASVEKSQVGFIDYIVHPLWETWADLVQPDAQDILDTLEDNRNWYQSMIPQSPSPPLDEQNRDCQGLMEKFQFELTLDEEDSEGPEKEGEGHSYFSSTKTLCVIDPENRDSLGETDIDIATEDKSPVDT

## C[S+]([O-])c1cn(-c2ncc(-c3ccccc3)cn2)c2cc(C(=O)N3CCNCC3)ccc12 (stereo not shown) [Example 12, (3-(Methylsulfinyl)-1-(5-phenylpyrimidin-2-yl)-1H-indol-6-yl)(piperazin-1-yl)methanone]
[1]
  inhibition at 1 µM: 33%
other
  melting point: 193 to 197 °C

## C[S+]([O-])c1cn(-c2ncc(-c3ccccc3F)cn2)c2cc(C(=O)N3CCNCC3)ccc12 (stereo not shown) [Example 13, (1-(5-(2-Fluorophenyl)pyrimidin-2-yl)-3-(methylsulfinyl)-1H-indol-6-yl)(piperazin-1-yl)methanone]
[1]
  inhibition at 1 µM: 51%
other
  melting point: 199 to 203 °C

## C[S+]([O-])c1cn(-c2ncc(-c3ccc(F)cc3F)cn2)c2cc(C(=O)N3CCNCC3)ccc12 (stereo not shown) [Example 14, (1-(5-(2,4-Difluorophenyl)pyrimidin-2-yl)-3-(methylsulfinyl)-1H-indol-6-yl)(piperazin-1-yl)methanone]
[1]
  inhibition at 1 µM: 38%
other
  melting point: 198 to 201 °C

## C[S+]([O-])c1cn(-c2ncc(-c3cc(C#N)ccc3F)cn2)c2cc(C(=O)N3CCNCC3)ccc12 (stereo not shown) [Example 17, 4-Fluoro-3-(2-(3-(methylsulfinyl)-6-(piperazine-1-carbonyl)-1H-indol-1-yl)pyrimidin-5-yl)benzonitrile]
[1]
  inhibition at 1 µM: 41%
other
  melting point: 159 to 163 °C

## C[S+]([O-])c1cn(-c2ncc(-c3ccc(F)cc3F)cn2)c2cc(C(=O)N3CCOCC3)ccc12 (stereo not shown) [Example 18, (1-(5-(2,4-Difluorophenyl)pyrimidin-2-yl)-3-(methylsulfinyl)-1H-indol-6-yl)(morpholino)methanone]
[1]
  inhibition at 1 µM: 91%
other
  melting point: 230 to 233 °C

## C[S+]([O-])c1cn(-c2ncc(-c3ccc(C(N)=O)cc3F)cn2)c2cc(C(=O)N3CCOCC3)ccc12 (stereo not shown) [Example 19, 3-Fluoro-4-(2-(3-(methylsulfinyl)-6-(morpholine-4-carbonyl)-1H-indol-1-yl)pyrimidin-5-yl)benzamide]
[1]
  inhibition at 1 µM: 94%
other
  melting point: 202 to 206 °C

## C[S+]([O-])c1cn(-c2ncc(-c3ccccc3C#N)cn2)c2cc(C(=O)N3CCOCC3)ccc12 (stereo not shown) [Example 20, 2-(2-(3-(Methylsulfinyl)-6-(morpholine-4-carbonyl)-1H-indol-1-yl)pyrimidin-5-yl)benzonitrile]
[1]
  inhibition at 1 µM: 74%
other
  melting point: 277 to 281 °C

## CS(=O)(=O)c1cn(-c2ncc(-c3ccccc3F)cn2)c2cc(C(=O)N3CCNCC3)ccc12 [Example 24, (1-(5-(2-Fluorophenyl)pyrimidin-2-yl)-3-(methylsulfonyl)-1H-indol-6-yl)(piperazin-1-yl)methanone]
[1]
  inhibition at 1 µM: 41%
other
  melting point: 206 to 210 °C

## CS(=O)(=O)c1cn(-c2ncc(-c3cc(C#N)ccc3F)cn2)c2cc(C(=O)N3CCNCC3)ccc12 [Example 26, 4-Fluoro-3-(2-(3-(methylsulfonyl)-6-(piperazine-1-carbonyl)-1H-indol-1-yl)pyrimidin-5-yl)benzonitrile]
[1]
  inhibition at 1 µM: 41%
other
  melting point: 279 to 283 °C

## O=C(c1ccc2c(CO)cn(-c3ncc(-c4ccccc4F)cn3)c2c1)N1CCOCC1 [Example 27, (1-(5-(2-Fluorophenyl)pyrimidin-2-yl)-3-(hydroxymethyl)-1H-indol-6-yl)(morpholino)methanone]
[1]
  inhibition at 1 µM: 79%
other
  melting point: 190 to 194 °C

## CC[S+]([O-])c1cn(-c2ncc(-c3ccccc3F)cn2)c2cc(C(=O)N3CCOCC3)ccc12 (stereo not shown) [Example 29, (3-(Ethylsulfinyl)-1-(5-(2-fluorophenyl)pyrimidin-2-yl)-1H-indol-6-yl)(morpholino)methanone]
[1]
  inhibition at 1 µM: 57%
other
  melting point: 122 to 126 °C

## COc1ccnc(-c2cnc(-n3cc([S+](C)[O-])c4ccc(C(=O)N5CCOCC5)cc43)nc2)c1 (stereo not shown) [Example 141, (1-(5-(4-Methoxypyridin-2-yl)pyrimidin-2-yl)-3-(methylsulfinyl)-1H-indol-6-yl)(morpholino)methanone]
[1]
  inhibition at 1 µM: 115%
other
  melting point: 216 to 220 °C

## C[S+]([O-])c1cn(-c2ncc(-c3ccnc(O)c3)cn2)c2cc(C(=O)N3CCOCC3)ccc12 (stereo not shown) [Example 143, (1-(5-(2-Hydroxypyridin-4-yl)pyrimidin-2-yl)-3-(methylsulfinyl)-1H-indol-6-yl)(morpholino)methanone]
[1]
  inhibition at 1 µM: 65%
other
  melting point: 262 to 265 °C

## C[S+]([O-])c1cn(-c2ncc(-c3cccnn3)cn2)c2cc(C(=O)N3CCOCC3)ccc12 (stereo not shown) [Example 144, (3-(Methylsulfinyl)-1-(5-(pyridazin-3-yl)pyrimidin-2-yl)-1H-indol-6-yl)(morpholino)methanone]
[1]
  inhibition at 1 µM: 47%
other
  melting point: 261 to 265 °C

## C[S+]([O-])c1cn(-c2ncc(-c3cscn3)cn2)c2cc(C(=O)N3CCOCC3)ccc12 (stereo not shown) [Example 145, (3-(Methylsulfinyl)-1-(5-(thiazol-4-yl)pyrimidin-2-yl)-1H-indol-6-yl)(morpholino)methanone]
[1]
  inhibition at 1 µM: 83%
other
  melting point: 254 to 257 °C

## C[S+]([O-])c1cn(-c2ncc(-c3cc(N)ccc3F)cn2)c2cc(C(=O)N3CCOCC3)ccc12 (stereo not shown) [Example 146, (1-(5-(5-Amino-2-fluorophenyl)pyrimidin-2-yl)-3-(methylsulfinyl)-1H-indol-6-yl)(morpholino)methanone]
[1]
  inhibition at 1 µM: 118%
other
  melting point: 188 to 192 °C

## C[S+]([O-])c1cn(-c2ncc(-c3cc(O)ccn3)cn2)c2cc(C(=O)N3CCOCC3)ccc12 (stereo not shown) [Example 147, (1-(5-(4-Hydroxypyridin-2-yl)pyrimidin-2-yl)-3-(methylsulfinyl)-1H-indol-6-yl)(morpholino)methanone]
[1]
  inhibition at 1 µM: 67%
other
  melting point: 272 to 276 °C

## C[S+]([O-])c1cn(-c2ncc(-c3cccc(O)c3)cn2)c2cc(C(=O)N3CCOCC3)ccc12 (stereo not shown) [Example 149, (1-(5-(3-Hydroxyphenyl)pyrimidin-2-yl)-3-(methylsulfinyl)-1H-indol-6-yl)(morpholino)methanone]
[1]
  inhibition at 1 µM: 87%
other
  melting point: 249 to 253 °C

## C[S+]([O-])c1cn(-c2ncc(-c3ccncc3F)cn2)c2cc(C(=O)N3CCOCC3)ccc12 (stereo not shown) [Example 150, (1-(5-(3-Fluoropyridin-4-yl)pyrimidin-2-yl)-3-(methylsulfinyl)-1H-indol-6-yl)(morpholino)methanone]
[1]
  inhibition at 1 µM: 49%
other
  melting point: 241 to 244 °C

## Cc1cccc(-c2cnc(-n3cc(S(C)(=O)=O)c4ccc(C(=O)N5CCNC(=O)C5)cc43)nc2)c1 [Example 151, 4-(3-(Methylsulfonyl)-1-(5-(m-tolyl)pyrimidin-2-yl)-1H-indole-6-carbonyl)piperazin-2-one]
[1]
  inhibition at 1 µM: 91%
other
  melting point: 283 to 287 °C

## COc1ccc(F)c(-c2cnc(-n3cc(S(C)(=O)=O)c4ccc(C(=O)N5CCNC(=O)C5)cc43)nc2)c1 [Example 152, 4-(1-(5-(2-Fluoro-5-methoxyphenyl)pyrimidin-2-yl)-3-(methylsulfonyl)-1H-indole-6-carbonyl)piperazin-2-one]
[1]
  inhibition at 1 µM: 90%
other
  melting point: 293 to 295 °C

## COc1cccc(-c2cnc(-n3cc(S(C)(=O)=O)c4ccc(C(=O)N5CCNC(=O)C5)cc43)nc2)c1 [Example 153, 4-(1-(5-(3-Methoxyphenyl)pyrimidin-2-yl)-3-(methylsulfonyl)-1H-indole-6-carbonyl)piperazin-2-one]
[1]
  inhibition at 1 µM: 76%
other
  melting point: 270 to 273 °C

## CO[C@H]1CCN(C(=O)c2ccc3c([S+](C)[O-])cn(-c4ncc(-c5ccccc5F)cn4)c3c2)C1 (stereo partly drawn) [Example 172, (1-(5-(2-Fluorophenyl)pyrimidin-2-yl)-3-(methylsulfinyl)-1H-indol-6-yl)((S)-3-methoxypyrrolidin-1-yl)methanone]
[1]
  inhibition at 1 µM: 46%
other
  melting point: 164 to 166 °C

## CC(C)(O)c1cn(-c2ncc(-c3ccccc3F)cn2)c2cc(C(=O)N3CCOCC3)ccc12 [Example 184, (1-(5-(2-Fluorophenyl)pyrimidin-2-yl)-3-(2-hydroxypropan-2-yl)-1H-indol-6-yl)(morpholino)methanone]
[1]
  inhibition at 1 µM: 86%
other
  melting point: 116 to 119 °C

## Cc1cc(-c2cnc(-n3cc([S+](C)[O-])c4ccc(C(=O)N5CCOCC5)cc43)nc2)ccn1 (stereo not shown) [Example 186, (1-(5-(2-Methylpyridin-4-yl)pyrimidin-2-yl)-3-(methylsulfinyl)-1H-indol-6-yl)(morpholino)methanone]
[1]
  inhibition at 1 µM: 74%
other
  melting point: 230 to 232 °C

## C[S+]([O-])c1cn(-c2ncc(-c3ccnc(F)c3)cn2)c2cc(C(=O)N3CCOCC3)ccc12 (stereo not shown) [Example 187, (1-(5-(2-Fluoropyridin-4-yl)pyrimidin-2-yl)-3-(methylsulfinyl)-1H-indol-6-yl)(morpholino)methanone]
[1]
  inhibition at 1 µM: 56%
other
  melting point: 285 to 288 °C

## C[S+]([O-])c1cn(-c2ncc(-c3cccc(CO)c3)cn2)c2cc(C(=O)N3CCOCC3)ccc12 (stereo not shown) [Example 188, (1-(5-(3-(Hydroxymethyl)phenyl)pyrimidin-2-yl)-3-(methylsulfinyl)-1H-indol-6-yl)(morpholino)methanone]
[1]
  inhibition at 1 µM: 104%
other
  melting point: 193 to 196 °C

## CCc1cccc(-c2cnc(-n3cc([S+](C)[O-])c4ccc(C(=O)N5CCOCC5)cc43)nc2)c1 (stereo not shown) [Example 189, (1-(5-(3-Ethylphenyl)pyrimidin-2-yl)-3-(methylsulfinyl)-1H-indol-6-yl)(morpholino)methanone]
[1]
  inhibition at 1 µM: 109%
other
  melting point: 162 to 165 °C

## COC(=O)c1ccc(-c2cnc(-n3cc([S+](C)[O-])c4ccc(C(=O)N5CCOCC5)cc43)nc2)cc1 (stereo not shown) [Example 190, Methyl 4-(2-(3-(methylsulfinyl)-6-(morpholine-4-carbonyl)-1H-indol-1-yl)pyrimidin-5-yl)benzoate]
[1]
  inhibition at 1 µM: 90%
other
  melting point: 256 to 258 °C
